In brackets after ≈: the same amount, converted by molar mass.
Settings: 25 °C

Going from CC1CCOC1 (stereo unspecified) to C=COC1CC1, the solubility falls from 1230 mM (≈ 106000 µg/mL) to 79.4 mM (≈ 6680 µg/mL) (15-fold).

Going from CCC(C)OC (stereo unspecified) to CC(C)[C@@H](C)CO, the solubility rises from 186 mM (≈ 16400 µg/mL) to 427 mM (≈ 43600 µg/mL) (2.3-fold).

CCc1ccccc1Br and Brc1ccccc1Br are within 1.5-fold of each other in solubility: 0.214 mM (≈ 39.5 µg/mL) for the first, 0.316 mM (≈ 74.6 µg/mL) for the second.

Going from CCS to CCCC(C)(C)CO, the solubility falls from 166 mM (≈ 10300 µg/mL) to 33.1 mM (≈ 3850 µg/mL) (5-fold).

Compared with Cc1ccc(Br)cc1, CC(C)c1ccccc1Br is 10-fold lower in solubility: 0.643 mM (≈ 110 µg/mL) for the first, 0.0646 mM (≈ 12.9 µg/mL) for the second.

Compared with ICCI, CCOC(=O)CCCC(=O)OCC is 77-fold higher in solubility: 0.606 mM (≈ 171 µg/mL) for the first, 46.8 mM (≈ 8810 µg/mL) for the second.

Going from Cc1c2ccccc2cc2c1cc(F)c1ccccc12 to Sc1ccccc1, the solubility rises from 4.9e-05 mM (≈ 0.0127 µg/mL) to 7.58 mM (≈ 835 µg/mL).

First: Brc1cc(Br)cc(Br)c1
Second: CC(C)OC=O
The solubility of the first is 94000-fold lower: 0.00251 mM (≈ 0.79 µg/mL) for the first, 235 mM (≈ 20700 µg/mL) for the second.
